Assay results taken from ChEMBL document CHEMBL1201862, “PubChem BioAssay data set” (2004).
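Each compound was tested at five concentrations against cells in 96-well plates for 48 hours. The concentration for 50% growth inhibition is given as GI50.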 Calls of active or inactive are those of the source. Cut-off read from the data, not from the text of the source: active = GI50 up to about 1.1 µM and inactive = higher.

Experiments:
Test in all cases: NCI-60 cell line screen, 48 h
LXFL 529 = system: LXFL 529
HOP-18 = system: HOP-18
KM-20L2 = system: KM-20L2
SNB-78 = system: SNB-78
DMS-114 = system: DMS-114
DMS-273 = system: DMS-273
M19-MEL = system: M19-MEL
RXF 631 = system: RXF 631
XF498 = system: XF498

SMILES | GI50 (LXFL 529) | GI50 (HOP-18) | GI50 (KM-20L2) | GI50 (SNB-78) | GI50 (DMS-114) | GI50 (DMS-273) | GI50 (M19-MEL) | GI50 (RXF 631) | GI50 (XF498)
COC1=C(Br)C(=O)c2nc(C)ccc2C1=O | 6.28 µM (inactive) | 17.1 µM (inactive) | 19 µM (inactive) | 18.7 µM (inactive) | 15 µM (inactive) | 17.2 µM (inactive) | 14.1 µM (inactive) |  | 
O=C(N/N=C(/c1nc2ccc(Cl)cc2[nH]c1=O)C(O)c1ccc(Cl)cc1Cl)c1ccncc1 (stereo not given) | > 100 µM (inactive) |  | > 100 µM (inactive) | > 100 µM (inactive) | > 100 µM (inactive) | > 100 µM (inactive) | > 100 µM (inactive) | > 100 µM (inactive) | 
Cc1ccc(C)c(NC(=O)CCc2nnc(S)[nH]2)c1 | > 100 µM (inactive) | > 100 µM (inactive) | > 100 µM (inactive) | > 100 µM (inactive) | 28.7 µM (inactive) | > 100 µM (inactive) | > 100 µM (inactive) | > 100 µM (inactive) | > 100 µM (inactive)
Cc1cccc(C)c1NC(=O)C(=O)CC(=O)c1cccc([N+](=O)[O-])c1 | > 100 µM (inactive) | > 100 µM (inactive) | > 100 µM (inactive) | > 100 µM (inactive) |  | > 100 µM (inactive) | > 100 µM (inactive) |  | > 100 µM (inactive)
COc1ccc(C2c3cc4c(cc3OC(O)(CO)C2C(=O)O)OCO4)c(OC)c1OC.COc1ccc(C2c3cc4c(cc3OC3(O)COC(=O)C23)OCO4)c(OC)c1OC (stereo not given) |  | > 100 µM (inactive) | > 100 µM (inactive) | 59.2 µM (inactive) | > 100 µM (inactive) | > 100 µM (inactive) | > 100 µM (inactive) |  | > 100 µM (inactive)
COc1ccc(CC(=O)c2cc(OC)c(OC)cc2C)cc1OC | 24.8 µM (inactive) |  | > 100 µM (inactive) | > 100 µM (inactive) | 14.7 µM (inactive) |  | 37.6 µM (inactive) |  | 25.5 µM (inactive)
Cc1ccc(S(=O)(=O)c2ccc(NC(=O)SCCC(=O)O)cc2)cc1 | > 100 µM (inactive) |  | > 100 µM (inactive) | > 100 µM (inactive) | > 100 µM (inactive) | > 100 µM (inactive) |  |  | 
NC(=S)N/N=C(\C(=O)Nc1cccc([N+](=O)[O-])c1)c1nc2ccc([N+](=O)[O-])cc2nc1O | 71.1 µM (inactive) | 15 µM (inactive) | 37.2 µM (inactive) |  | 20.7 µM (inactive) | 44.4 µM (inactive) | > 100 µM (inactive) | > 100 µM (inactive) | 36.1 µM (inactive)
Cn1ncc2c(c1=O)Nc1ccccc1S2(=O)=O | 80.4 µM (inactive) | > 100 µM (inactive) | > 100 µM (inactive) | > 100 µM (inactive) | 22 µM (inactive) | > 100 µM (inactive) | > 100 µM (inactive) |  | 
Cc1ccc(C)c(N2C(=O)C(=O)C(c3nc4ccccc4s3)C(=O)C2=O)c1 | > 100 µM (inactive) |  | > 100 µM (inactive) | > 100 µM (inactive) | > 100 µM (inactive) | > 100 µM (inactive) | > 100 µM (inactive) |  | 
COc1cc(C2C(C(=O)Nc3ccc([N+](=O)[O-])cc3)=C(C)NC(C)=C2C(=O)Nc2ccc([N+](=O)[O-])cc2)ccc1O | 18.3 µM (inactive) | 27.6 µM (inactive) | 18.5 µM (inactive) | 34.8 µM (inactive) | 24.1 µM (inactive) | 21.9 µM (inactive) | 19.3 µM (inactive) | 32.5 µM (inactive) | 23.8 µM (inactive)
Cc1ns/c(=N\C(=S)N(C)C)n1C | > 100 µM (inactive) | > 100 µM (inactive) | > 100 µM (inactive) | > 100 µM (inactive) | > 100 µM (inactive) | > 100 µM (inactive) |  | > 100 µM (inactive) | > 100 µM (inactive)
COc1ccc(S(=O)(=O)NNS(C)(=O)=O)cc1 | > 100 µM (inactive) |  | > 100 µM (inactive) |  | > 100 µM (inactive) | > 100 µM (inactive) | > 100 µM (inactive) | > 100 µM (inactive) | 60.3 µM (inactive)
O=C(Nc1nc2ncn(CCOC(=O)c3ccccc3)c2c(=O)[nH]1)c1ccccc1 | 22.7 µM (inactive) | > 100 µM (inactive) | 6.9 µM (inactive) | > 100 µM (inactive) |  |  |  | 15.4 µM (inactive) | 20.2 µM (inactive)
CN(C)C(c1ccccc1)C(O)c1ccccc1 (stereo not given) | > 100 µM (inactive) | > 100 µM (inactive) | > 100 µM (inactive) | > 100 µM (inactive) | > 100 µM (inactive) | > 100 µM (inactive) | > 100 µM (inactive) | > 100 µM (inactive) | > 100 µM (inactive)
CNC(=S)OCCC(C)CCCC(C)C (stereo not given) | 15.8 µM (inactive) | 15.3 µM (inactive) | 16.3 µM (inactive) | 18.8 µM (inactive) |  | 16.8 µM (inactive) | 19.3 µM (inactive) |  | 17 µM (inactive)
CC(=O)Nc1ccc(-c2nnc(SCC(=O)Nc3ccc(C)cc3)o2)cc1 | 16.3 µM (inactive) | 17.4 µM (inactive) | 19.5 µM (inactive) | 16.6 µM (inactive) | 14.8 µM (inactive) | 15.9 µM (inactive) | 17.6 µM (inactive) |  | 
Nc1nc2c(ncn2C2OC(CO)C(O)C2N)c(=O)[nH]1 (stereo not given) | > 100 µM (inactive) |  |  | > 100 µM (inactive) | > 100 µM (inactive) | > 100 µM (inactive) | > 100 µM (inactive) | 79.6 µM (inactive) | > 100 µM (inactive)
N#C/C(=C\c1cc2ccccc2c2ccccc12)c1ccccc1 | 14.4 µM (inactive) | 18.7 µM (inactive) | 3.9 µM (inactive) | 4.06 µM (inactive) |  | 3.05 µM (inactive) | 7.29 µM (inactive) |  | 3.22 µM (inactive)
CN(C)CCC(CCN(C)C)=NOC(=O)c1ccccc1 | > 100 µM (inactive) | > 100 µM (inactive) | > 100 µM (inactive) |  | > 100 µM (inactive) | > 100 µM (inactive) | > 100 µM (inactive) | > 100 µM (inactive) | > 100 µM (inactive)
CC(Oc1ccc2c(=O)cc(-c3ccccc3)oc2c1)C(=O)O (stereo not given) | > 100 µM (inactive) | > 100 µM (inactive) | > 100 µM (inactive) | > 100 µM (inactive) | > 100 µM (inactive) |  | > 100 µM (inactive) |  | > 100 µM (inactive)
Brc1ccc(/C=N/C23CC4CC(CC(C4)C2)C3)cc1 | > 100 µM (inactive) | > 100 µM (inactive) | > 100 µM (inactive) | > 100 µM (inactive) | > 100 µM (inactive) | > 100 µM (inactive) | > 100 µM (inactive) | > 100 µM (inactive) | > 100 µM (inactive)
COc1ccc(NC(=O)COC(=O)c2cccc3c(=O)c4ccccc4[nH]c23)cc1 | 17.3 µM (inactive) | 27 µM (inactive) | 21.5 µM (inactive) | 22.1 µM (inactive) | 17.2 µM (inactive) |  | 19.2 µM (inactive) |  | 19.9 µM (inactive)
Cc1cc(NC(=O)NC(=O)c2ccccc2N(C)C)ccc1Oc1ncc(Br)cn1 | 0.39 µM (active) | > 100 µM (inactive) | 0.284 µM (active) | 1.05 µM (active) | 0.219 µM (active) |  | 0.455 µM (active) |  | 0.288 µM (active)
Cn1cc(C(=O)NCCC(=N)N)cc1NC(=O)C1=[N+](C)C=C(NC(=O)c2cccc(C(=O)NC3=CC(C(=O)Nc4cc(C(=O)NCCC(=N)N)cn4C)=[N+](C)C3)c2)C1 | > 100 µM (inactive) | > 100 µM (inactive) | > 100 µM (inactive) |  | 70.6 µM (inactive) | 59.8 µM (inactive) | > 100 µM (inactive) |  | > 100 µM (inactive)
O=C1/C(=C/c2ccc(Cl)cc2)CNC/C1=C\c1ccc(Cl)cc1 | 1.09 µM (active) | 4.89 µM (inactive) | 2.64 µM (inactive) | 2.65 µM (inactive) |  | 1.98 µM (inactive) | 2.1 µM (inactive) | 2.79 µM (inactive) | 2.83 µM (inactive)
N#C/C(=C\c1c[nH]c2ccccc12)C(=O)c1ccc(O)c(O)c1 | 39.4 µM (inactive) | 38.5 µM (inactive) | 55.5 µM (inactive) |  |  | 36.2 µM (inactive) | 83.2 µM (inactive) |  | 48.8 µM (inactive)
